Measured values reported in PubChem BioAssay (NCI).
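Exposure lasted 48 hours, with cells grown in 96-well plates and compounds tested at five concentrations. TGI is the concentration that stops growth completely.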

Key:
Assay in all cases: NCI anticancer screen, dose series, 48 h
BT-549 breast = test system: BT-549 breast
SF-268 CNS = test system: SF-268 CNS
SR leukemia = test system: SR leukemia
ACHN renal = test system: ACHN renal
NCI/ADR-RES ovarian = test system: NCI/ADR-RES ovarian
NCI-H23 lung = test system: NCI-H23 lung
K-562 leukemia = test system: K-562 leukemia
IGROV1 ovarian = test system: IGROV1 ovarian
NCI-H522 lung = test system: NCI-H522 lung
MDA-MB-231 breast = test system: MDA-MB-231 breast
A498 renal = test system: A498 renal
SNB-19 CNS = test system: SNB-19 CNS
HS 578T breast = test system: HS 578T breast
KM12 colon = test system: KM12 colon
SW-620 colon = test system: SW-620 colon
PC-3 prostate = test system: PC-3 prostate
EKVX NSCLC = test system: EKVX NSCLC
SK-MEL-2 melanoma = test system: SK-MEL-2 melanoma
OVCAR-4 ovarian = test system: OVCAR-4 ovarian
SF-539 CNS = test system: SF-539 CNS

Row | SMILES | TGI (BT-549 breast) [µM] | TGI (SF-268 CNS) [µM] | TGI (SR leukemia) [µM] | TGI (ACHN renal) [µM] | TGI (NCI/ADR-RES ovarian) [µM] | TGI (NCI-H23 lung) [µM] | TGI (K-562 leukemia) [µM] | TGI (IGROV1 ovarian) [µM] | TGI (NCI-H522 lung) [µM] | TGI (MDA-MB-231 breast) [µM] | TGI (A498 renal) [µM] | TGI (SNB-19 CNS) [µM] | TGI (HS 578T breast) [µM] | TGI (KM12 colon) [µM] | TGI (SW-620 colon) [µM] | TGI (PC-3 prostate) [µM] | TGI (EKVX NSCLC) [µM] | TGI (SK-MEL-2 melanoma) [µM] | TGI (OVCAR-4 ovarian) [µM] | TGI (SF-539 CNS) [µM]
1 | OC(CC(CC(O)(C(F)(F)Cl)C(F)(F)Cl)=NNc1ccccc1)(C(F)(F)Cl)C(F)(F)Cl | 5.69 | 7.44 | > 10 | 9.12 | 8.62 | 7.31 | > 10 | > 10 | > 10 | 6.63 | 6.72 | > 10 | 5.93 | 7.54 | > 10 | 4.7 | 7.35 | 3.56 | > 10 | 8.75
2 | Clc1cc(OCc2nn3c(Cc4ccccc4)nnc3s2)ccc1OCc1nn2c(Cc3ccccc3)nnc2s1 | > 100 | > 100 | > 100 | > 100 | > 100 | > 100 | > 100 | > 100 | > 100 | 66.8 | 79.6 | 82.7 | > 100 | > 100 | > 100 | > 100 | 66.2 | > 100 | 59.3 | > 100
3 | NCC[Se][Se]CCN | 27.8 | 32.5 | > 100 | 22.8 | 58 | 30.6 | 64 | 25.7 | 25.6 | 25.7 | 23.8 | 20.7 | 82.2 | 20.6 | 48.9 | 27.5 | 18.1 | 23.2 | 32.1 | 34.4
4 | CC(=O)NC1=C(C)C(=O)c2c(nc3n2CCC3OC(=O)c2ccccc2)C1=N (stereo not given) | 1.65 | 6.28 | 7.73 | 3.13 | 8.52 | 3.83 | 5.65 | 3.58 | 7.47 | 6.45 | 3.66 | 11.7 | 5.4 | 11.6 | 5.17 | 6.85 | 6 | 4.18 | 1.2 | 2.56
5 | NC(=O)C(c1ccccc1)N1OC2C(=O)N(Cc3ccccc3)C(=O)C2C1c1cccc(Oc2ccc(Cl)cc2)c1 (stereo not given) | > 100 | > 100 | 54.1 | 39.9 | > 100 | > 100 | 99.5 | > 100 | > 100 | > 100 | > 100 | > 100 | > 100 | > 100 | > 100 | > 100 | 67.2 | 48.8 | > 100 | 47.2
6 | O=C1c2cccc3cccc(c23)C(=O)N1CCCNCCCCNCCCN1C(=O)c2cccc3cccc(c23)C1=O | 3.02 | 0.605 | 0.219 | 6.47 | 32.3 | 0.866 | 0.337 | 1.83 | 0.0803 | 1.09 | 2.45 | 4.35 | 0.216 | 3.66 | 3.54 | 1.05 | 3.28 | 1.89 | 1.93 | 1.57
